Data from ChEMBL document CHEMBL5543059, “Discovery of anti-inflammatory natural flavonoids: Diverse scaffolds and promising leads for drug discovery” (Eur J Med Chem, 2023).
Each block holds one compound with its values, some of them ahead of it.

Tests used:
BV-2 [1] = assay: Antineuroinflammatory activity in LPS-induced mouse BV-2 cells assessed as inhibition of iNOS production at 50 uM pre-incubated for 2 hr followed by LPS-stimulation measured for 24 hrs by Western blot analysis; type: functional; set-up: scale not given: the % may be the effect or the level left; details: time 26 hrs
Mus musculus [2] = assay: Antiinflammatory activity against TPA-induced CD-1 mouse ear edema model assessed as reduction in ear edema at 0.25 mg/kg relative to control; type: functional; set-up: scale not given: the % may be the effect or the level left
Mus musculus [3] = assay: Antiinflammatory activity against TPA-induced CD-1 mouse ear edema model assessed as reduction in ear edema; type: functional, organism-based
RAW264.7 [4] = assay: Anti-inflammatory activity in mouse RAW264.7 cells assessed as inhibition of LPS-induced TNF-alpha production at 50 microg/ml relative to control; type: functional; set-up: scale not given: the % may be the effect or the level left; details: dose 50 µg/ml
RAW264.7 [5] = assay: Anti-inflammatory activity in LPS-stimulated mouse RAW264.7 cells assessed as reduction in NO production incubated for 24 hrs by Griess reagent based assay; type: functional, cell-based; details: RAW264.7, 24 h
RAW264.7 [6] = assay: Anti-inflammatory activity in mouse RAW264.7 cells assessed as inhibition of LPS-induced IL-6 production at 50 microg/ml relative to control; type: functional; set-up: scale not given: the % may be the effect or the level left; details: dose 50 µg/ml
Mus musculus [7] = assay: Analgesic activity against acetic acid-induced BALB/c writhing mouse model assessed as inhibition of writhing at 10 mg/kg, ip pre-incubated for 30 mins followed by acetic acid addition and measured after 15 mins relative to control; type: functional; set-up: scale not given: the % may be the effect or the level left; details: time 45 min, 0.75 h
Mus musculus [8] = assay: Antiinflammatory activity in carrageenan-induced Kunming mouse model of paw edema assessed as paw volume at 1 mg/kg, ip pre-incubated for 1 hr followed by carrageenan administration measured for 60 mins relative to control; type: functional; details: time 2 hrs
Neutrophil [9] = assay: Inhibition of fMLF-induced chemotaxis in human neutrophils pretreated for 45 mins followed by fMLF-stimulation measured for 1 hr by luminescence based analysis; type: functional, cell-based
[10] = Anti-inflammatory activity in LPS-stimulated human PBMC cells assessed as inhibition of TNFalpha at 100 ug/ml relative to control; type: functional; set-up: scale not given: the % may be the effect or the level left; details: dose 100 µg/ml
RAW264.7 [11] = assay: Anti-inflammatory activity against LPS-stimulated mouse RAW264.7 cells assessed as inhibition of IL-6 expression at 10 uM by qRT-PCR analysis relative to control; type: functional; set-up: scale not given: the % may be the effect or the level left
BV-2 [12] = assay: Anti-inflammatory activity in mouse BV-2 cells assessed as inhibition of LPS-induced NO production preincubated with compound for 1 hrs followed by LPS stimulation and measured after 24 hrs by Griess reagent based assay; type: functional, cell-based
HepG2 = assay: Anti-inflammatory activity against TNFalpha-induced human HepG2 cells assessed as inhibition of NF-kappaB activity pre-indubated for 1 hr followed by TNFalpha treatment measured for 5 hrs by luciferase based assay; type: functional, cell-based
RAW264.7 [13] = assay: Antiinflammatory activity in mouse RAW264.7 cells assessed as decrease in LPS-stimulated IL-6 mRNA level incubated for 3 hrs by RT-qPCR analysis; type: functional, cell-based; details: RAW264.7, 3 h
RAW264.7 [14] = assay: Antiinflammatory activity against mouse RAW264.7 cells assessed as reduction of LPS-induced NO production; type: functional, cell-based
RAW264.7 [15] = assay: Antiinflammatory activity in mouse RAW264.7 cells assessed as decrease in LPS-induced IL-6 secretion after 24 hrs by ELISA method; type: functional, cell-based; details: RAW264.7, 24 h
RAW264.7 [16] = assay: Anti-inflammatory activity against mouse RAW264.7 cells assessed as reduction in NO production pre-incubated with compound for 1 hrs followed by LPS-stimulation and measured for 1 hrs by […]; type: functional, cell-based
[17] = Inhibition of nitric oxide synthase (unknown origin); set-up: species or system Homo sapiens
BV-2 [18] = assay: Antiinflammatory activity in mouse BV-2 cells assessed as reduction in LPS-induced NO production by Griess reagent based analysis; type: functional, cell-based
RAW264.7 [19] = assay: Anti-inflammatory activity against mouse RAW264.7 cells assessed as inhibition of LPS-induced NO production pre-incubated for 1 hr followed by compound addition and measured after 18 hrs by Griess reagent based analysis; type: functional, cell-based
Neutrophil [20] = assay: Inhibition of fMLP-induced cell migration in human neutrophil; type: functional, cell-based

Structure (SMILES): COc1ccc(-c2cc(=O)c3c(OC)c(OC)c(OC)c(OC)c3o2)cc1OC [NOBILETIN]
Activity (BV-2 [1]): 71.2%

Structure (SMILES): O=c1cc(-c2ccc(O)c(O)c2)oc2cc(O)cc(O)c12 [LUTEOLIN]
Activity (RAW264.7 [4]): 38% | IC50 (RAW264.7 [5]): 1.2 µM | Activity (RAW264.7 [6]): 37%

Structure (SMILES): O=c1c(O)c(-c2ccc(O)c(O)c2)oc2cc(O)cc(O)c12 [QUERCETIN]
Activity [10]: 28.6% | Activity (RAW264.7 [11]): 83.3% | IC50 (BV-2 [12]): 12.6 µM | IC50 (HepG2): 15.1 µM | IC50 (RAW264.7 [13]): 22.5 µM | IC50 (RAW264.7 [14]): 14.2 µM | IC50 (RAW264.7 [15]): 35.5 µM

Structure (SMILES): COc1cc(-c2cc(=O)c3c(O)c(OC)c(O)cc3o2)ccc1O [JACEOSIDINE]
IC50 (BV-2 [18]): 27 µM

Now from value to compound, other results behind:

IC50 (Mus musculus [3]): 0.72 µM
Structure (SMILES): O=C1C[C@@H](c2ccc(O)c(O)c2)Oc2cc(O)cc(O)c21 [ERIODICTYOL]
Activity (Mus musculus [2]): 56.3%

IC50 (Neutrophil [9]): 2.25 µM
Structure (SMILES): O=c1cc(-c2ccccc2)oc2cc(O)cc(O)c12 [CHRYSIN]
Activity (Mus musculus [7]): 56% | Activity (Mus musculus [8]): 25%

IC50 (RAW264.7 [16]): 16.3 µM | IC50 [17]: 19.1 µM
Structure (SMILES): O=C1C[C@@H](c2ccc(O)cc2)Oc2cc(O)ccc21 [LIQUIRTIGENIN]

IC50 (RAW264.7 [19]): 2.4 µM
Structure (SMILES): CC(C)=CCC/C(C)=C/Cc1c(C2CC(=O)c3c(cc(O)c(CC=C(C)C)c3O)O2)ccc(O)c1O (stereo unspecified)

IC50 (Neutrophil [20]): 1.77 µM
Structure (SMILES): COc1cc(O)c2c(=O)cc(-c3ccccc3)oc2c1 [TECHTOCHRYSIN]
